Source: patent US7877928B2, “Apparatus for use with a method for mass production of seedling of seed potato” (Koesan County, priority 2005, dated 2011)

What was measured:
[1] = test system: in vitro potato seedlings, potato cultivar "Superior"; assay: Seedling quality (growth state) of in vitro tissue-cultured potato plantlets according to supplemented components of MS medium; format: in vivo
Description: (§1) In order to determine conditions suitable for planting through stem cutting and acclimatizing tissue-cultured plantlets in DSCAC, the in vitro potato seedlings were evaluated for seedling quality and survival rates upon stem-cutting and acclimation according to the amount of supplemented components of MS medium.
(§2) The culture seedlings obtained from growing points collected from a seed potato cultivar, were tested for infection with viruses (PLRV, PVY, PVX, PVM, PVS and AMV) for selection of disease-free individuals. Then, plantlets were planted in 500-ml culture bottles containing 200 ml of a solid medium, which was prepared with a basic MS medium of pH 5.8 supplemented with 9 g/L of agar, and incubated for 25 days in a culture room under 4,500 Lux lighting for 18-20 hrs, and 0 Lux for 4-6 hrs using 4D fluorescent lamps, wherein the room temperature was maintained at 21° C. using an air conditioner. The in vitro potato seedlings were examined for growth states and survival rates upon stem-cutting and acclimation according to the amount of supplemented components of the medium.

[2] = test system: in vitro potato seedlings, potato cultivar "Superior"; assay: Survival rates of stem cuttings of in vitro potato seedlings upon stem-cutting and acclimation according to supplemented components of MS medium; format: in vivo
Description: as §1, §2

[3] = coumarin 0.010 mg/L + sucrose 30 g/L in MS medium
[4] = coumarin 0.010 mg/L + sucrose 80 g/L in MS medium
[5] = coumarin 0.015 mg/L + sucrose 30 g/L in MS medium
[6] = coumarin 0.015 mg/L + sucrose 80 g/L in MS medium
[7] = coumarin 0.020 mg/L + sucrose 30 g/L in MS medium
[8] = coumarin 0.020 mg/L + sucrose 80 g/L in MS medium
[9] = coumarin 0.025 mg/L + sucrose 30 g/L in MS medium
[10] = coumarin 0.025 mg/L + sucrose 80 g/L in MS medium
[11] = coumarin 0.030 mg/L + sucrose 30 g/L in MS medium
[12] = coumarin 0.030 mg/L + sucrose 80 g/L in MS medium
[13] = coumarin 0.035 mg/L + sucrose 30 g/L in MS medium
[14] = coumarin 0.035 mg/L + sucrose 80 g/L in MS medium
[15] = Table 2: sucrose 30 g/L, coumarin 0 mg/L in MS medium
[16] = Table 2: sucrose 80 g/L, coumarin 0 mg/L in MS medium
[17] = Table 3: sucrose 30 g/L, hyponex 0 g/L in MS medium
[18] = Table 3: sucrose 80 g/L, hyponex 0 g/L in MS medium
[19] = sucrose 20 g/L in MS medium, 25 days
[20] = sucrose 40 g/L in MS medium, 25 days
[21] = sucrose 60 g/L in MS medium, 25 days
[22] = sucrose 80 g/L in MS medium, 25 days
[23] = sucrose 100 g/L in MS medium, 25 days
[24] = sucrose 120 g/L in MS medium, 25 days
[25] = sucrose 140 g/L in MS medium, 25 days

For `O=c1ccc2ccccc2o1` [Coumarin, coumarin], the “Seedling quality and survival rates” value ([1]; MS medium with 80 g/L sucrose and 0.025 mg/L coumarin, compared with other amounts) was “highest seedling quality and survival rates”, the Fresh weight [1, 3] was 0.57 g/plant and the Plant length [1, 3] was 6.1 cm/plant. It also gave a Fresh weight [1, 4] of 1.12 g/plant, a Plant length [1, 4] of 7.8 cm/plant and a Fresh weight [1, 5] of 0.63 g/plant. The Plant length [1, 5] was 6.5 cm/plant, the Fresh weight [1, 6] was 1.13 g/plant and the Plant length [1, 6] was 7.9 cm/plant. It also gave a Fresh weight [1, 7] of 0.71 g/plant, a Plant length [1, 7] of 6.7 cm/plant and a Fresh weight [1, 8] of 1.31 g/plant. For the same molecule, the Plant length [1, 8] was 8.1 cm/plant, the Fresh weight [1, 9] was 0.84 g/plant and the Plant length [1, 9] was 6.9 cm/plant. The Fresh weight [1, 10] was 1.65 g/plant, the Plant length [1, 10] was 9.5 cm/plant and the Fresh weight [1, 11] was 0.86 g/plant. It also gave a Plant length [1, 11] of 6.7 cm/plant, a Fresh weight [1, 12] of 1.39 g/plant and a Plant length [1, 12] of 8.3 cm/plant. The Fresh weight [1, 13] was 0.71 g/plant, the Plant length [1, 13] was 6.4 cm/plant and the Fresh weight [1, 14] was 1.36 g/plant. The Plant length [1, 14] was 8.2 cm/plant, the “Survival rates of stem cuttings” value [2, 3] was 73 and the “Survival rates of stem cuttings” value [2, 4] was 90. The “Survival rates of stem cuttings” value [2, 5] was 78, the “Survival rates of stem cuttings” value [2, 6] was 92 and the “Survival rates of stem cuttings” value [2, 7] was 80. For the same molecule, the “Survival rates of stem cuttings” value [2, 8] was 100, the “Survival rates of stem cuttings” value [2, 9] was 83 and the “Survival rates of stem cuttings” value [2, 10] was 100. The “Survival rates of stem cuttings” value [2, 11] was 88, the “Survival rates of stem cuttings” value [2, 12] was 100 and the “Survival rates of stem cuttings” value [2, 13] was 81. For the same molecule, the “Survival rates of stem cuttings” value [2, 14] was 100.
With `OC[C@H]1O[C@@](CO)(O[C@H]2O[C@H](CO)[C@@H](O)[C@H](O)[C@H]2O)[C@@H](O)[C@@H]1O` [Sucrose, sucrose] the Fresh weight [1, 15] was 0.53 g/plant, the Plant length [1, 15] was 5.3 cm/plant and the Fresh weight [1, 16] was 0.72 g/plant. For the same molecule, the Plant length [1, 16] was 8.6 cm/plant, the Fresh weight [1, 17] was 0.53 g/plant and the Plant length [1, 17] was 7.2 cm/plant. The Fresh weight [1, 18] was 1.03 g/plant, the Plant length [1, 18] was 7.59 cm/plant and the Fresh weight [1, 19] was 0.47 g/plant. For the same molecule, the Plant length [1, 19] was 6.2 cm/plant, the Fresh weight [1, 20] was 0.53 g/plant and the Plant length [1, 20] was 7.4 cm/plant. It also gave a Fresh weight [1, 21] of 0.58 g/plant, a Plant length [1, 21] of 9.3 cm/plant and a Fresh weight [1, 22] of 0.75 g/plant. The Plant length [1, 22] was 9.5 cm/plant, the “Benefit to in vitro plantlets (plant length, fresh weight, survival rates of stem cuttings)” value ([1]; sucrose 80 g/L in MS medium, compared with other amounts) was “most beneficial” and the Fresh weight [1, 23] was 0.69 g/plant. For the same molecule, the Plant length [1, 23] was 6.1 cm/plant, the Fresh weight [1, 24] was 0.63 g/plant and the Plant length [1, 24] was 5.2 cm/plant. For the same molecule, the Fresh weight [1, 25] was 0.67 g/plant, the Plant length [1, 25] was 2.1 cm/plant and the “Survival rates of stem cuttings” value [2, 15] was 33. The “Survival rates of stem cuttings” value [2, 16] was 70, the “Survival rates of stem cuttings” value [2, 17] was 28 and the “Survival rates of stem cuttings” value [2, 18] was 79. For the same molecule, the “Survival rates of stem cuttings” value ([2]; sucrose 20 g/L in MS medium) was 27%, the “Survival rates of stem cuttings” value ([2]; sucrose 40 g/L in MS medium) was 34% and the “Survival rates of stem cuttings” value ([2]; sucrose 60 g/L in MS medium) was 59%. For the same molecule, the “Survival rates of stem cuttings” value ([2]; sucrose 80 g/L in MS medium) was 71%, the “Survival rates of stem cuttings” value ([2]; sucrose 100 g/L in MS medium) was 68% and the “Survival rates of stem cuttings” value ([2]; sucrose 120 g/L in MS medium) was 67%. For the same molecule, the “Survival rates of stem cuttings” value ([2]; sucrose 140 g/L in MS medium) was 72%.
